From US7423038B2, “Compounds and compositions as protein kinase inhibitors” (IRM LLC (a Delaware Limited Liability Corporation), priority 2004, dated 2008)

How the values were obtained:
[1] = molecular target: T1, MKK6 (Homo sapiens, UniProt P52564); experiment: Upstate KinaseProfiler radio-enzymatic filter binding assay, MKK6; format: biochemical; details: at a concentration of 10 μM; read-out: percentage inhibition of MKK6
T1 construct: purchased Upstate (KinaseProfiler panel)
Excerpt: (§1) “Kinase Panel” is a list of kinases comprising Abl(human), Abl(T315I), JAK2, JAK3, ALK, JNK1α1, ALK4, KDR, Aurora-A, Lck, Blk, MAFK1, Bmx, MAPKAP-K2, BRK, MEK1, CaMKII(rat), Met, CDK1/cyclinB, p70S6K, CHK2, PAK2, CK1, PDGFRα, CK2, PDK1, c-kit, Pim-2, c-RAF, PKA(h), CSK, PKBα, cSrc, PKCα, DYRK2, Plk3, EGFR, ROCK-I, Fes, Ron, FGFR3, Ros, Flt3, SAPK2α, Fms, SGK, Fyn, SIK, GSK3β, Syk, IGF-IR, Tie-2, IKKβ, TrKB, IR, WNK3, IRAK4, ZAP-70, ITK, AMPK(rat), LIMK1, Rsk2, Ax1, LKB1, SAFK2β, BrSK2, Lyn (h), SAPK3, BTK, MAPKAP-K3, SAPK4, CaMKIV, MARK1, Snk, CDK2/cyclinA, MINK, SRPK1, CDK3/cyclinE, MKK4(m), TAK1, CDK5/p25, MKK6(h), TBK1, CDK6/cyclinD3, MLCK, TrkA, CDK7/cyclinH/MAT1, MRCKβ, TSSK1, CHK1, MSK1, Yes, CK1d, MST2, ZIPK, c-Kit (D816V), MuSK, DAPK2, NEK2, DDR2, NEK6, DMPK, PAK4, DRAK1, PAR-1Bα, EphA1, PDGFRβ, EphA2, Pim-1, EphA5, PKBβ, EphB2, PKCβI, EphB4, PKCδ, FGFR1, PKCη, FGFR2, PKCθ, FGFR4, PKD2, Fgr, PKG1β, Flt1, PRK2, Hck, PYK2, HIPK2, Ret, IKKα, RIPK2, IRR, ROCK-II(human), JNK2α2, Rse, JNK3, Rsk1(h), PI3 Kγ, PI3 Kδ and PI3-Kβ. […]
(§2) Compounds of the invention are assessed for their ability to inhibit individual members of the kinase panel. […] The assay squares are transferred to a scintillation vial, 5 ml scintillation cocktail are added and ^32P incorporation (cpm) to the peptide substrate is quantified with a Beckman scintillation counter. […]

[2] = molecular target: T2, F317L Bcr-abl (Homo sapiens, UniProt P00519, F317L); experiment: Antiproliferative effect on Ba/F3 cells expressing F317L Bcr-abl; format: cell-based; details: F317L mutant
T2 construct: BCR (fusion partner); expressed in transfected cells; host or cells: Ba/F3 (murine pro-B cells); the other entry of the earlier key: BCR (P11274, Breakpoint cluster region protein)
Experimental: (§3) 32D-p210 cells are plated into 96 well TC plates at a density of 15,000 cells per well. 50 μL of two fold serial dilutions of the test compound (Cmax is 40 μM) are added to each well (STI571 is included as a positive control). After incubating the cells for 48 hours at 37° C., 5% CO2, 15 μl, of MTT (Promega) is added to each well and the cells are incubated for an additional 5 hours. The optical density at 570 nm is quantified spectrophotometrically and IC50 values, the concentration of compound required for 50% inhibition, determined from a dose response curve.
(§4) Compounds of the invention are tested for their antiproliferative effect on Ba/F3 cells expressing either wild type or the mutant forms of BCR-Abl (G250E, E255V, T315I, F317L, M351T) that confers resistance or diminished sensitivity to STI571. The antiproliferative effect of these compounds on the mutant-BCR-Abl expressing cells and on the non transformed cells were tested at 10, 3.3, 1.1 and 0.37 μM as described above (in media lacking IL3). The IC50 values of the compounds lacking toxicity on the untransformed cells were determined from the dose response curves obtained as describe above.

[3] = molecular target: T3, PDGFRα (Homo sapiens, UniProt P16234); experiment: Upstate KinaseProfiler radio-enzymatic filter binding assay, PDGFRα; format: biochemical; details: at a concentration of 10 μM; read-out: percentage inhibition of PDGFRα
T3 construct: purchased Upstate (KinaseProfiler panel)
T3 sequence (P16234 24-1089): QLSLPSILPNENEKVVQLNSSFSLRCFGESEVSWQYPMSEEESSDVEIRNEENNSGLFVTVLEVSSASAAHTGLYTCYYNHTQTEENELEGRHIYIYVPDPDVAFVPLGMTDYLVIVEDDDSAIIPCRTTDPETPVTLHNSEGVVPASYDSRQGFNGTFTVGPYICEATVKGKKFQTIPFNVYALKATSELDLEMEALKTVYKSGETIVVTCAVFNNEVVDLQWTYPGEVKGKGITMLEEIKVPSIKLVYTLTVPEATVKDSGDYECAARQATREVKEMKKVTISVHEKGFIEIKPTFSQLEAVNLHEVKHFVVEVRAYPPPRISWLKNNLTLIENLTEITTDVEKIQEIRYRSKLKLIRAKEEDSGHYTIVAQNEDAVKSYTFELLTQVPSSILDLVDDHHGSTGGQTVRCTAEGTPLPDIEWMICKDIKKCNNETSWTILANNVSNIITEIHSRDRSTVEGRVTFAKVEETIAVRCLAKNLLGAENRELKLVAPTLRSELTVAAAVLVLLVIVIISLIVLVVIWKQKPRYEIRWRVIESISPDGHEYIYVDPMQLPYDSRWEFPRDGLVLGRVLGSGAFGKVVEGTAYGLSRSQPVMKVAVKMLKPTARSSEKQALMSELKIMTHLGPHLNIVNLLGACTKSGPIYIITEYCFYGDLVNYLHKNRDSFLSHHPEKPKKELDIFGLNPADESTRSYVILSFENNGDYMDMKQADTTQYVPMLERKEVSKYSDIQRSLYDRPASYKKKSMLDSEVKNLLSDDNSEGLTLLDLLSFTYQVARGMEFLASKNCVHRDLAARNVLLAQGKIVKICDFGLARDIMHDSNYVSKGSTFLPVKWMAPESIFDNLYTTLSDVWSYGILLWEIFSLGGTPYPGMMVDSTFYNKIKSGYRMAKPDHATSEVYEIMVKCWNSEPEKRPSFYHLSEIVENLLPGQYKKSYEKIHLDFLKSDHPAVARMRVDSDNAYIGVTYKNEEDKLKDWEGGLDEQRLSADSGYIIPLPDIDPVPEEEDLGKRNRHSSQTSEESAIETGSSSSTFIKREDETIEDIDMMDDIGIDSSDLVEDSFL
Experimental: (§5) Compounds of the invention are assessed for their ability to inhibit individual members of the kinase panel. The compounds are tested in duplicates at a final concentration of 10 μM following this generic protocol, Note that the kinase buffer composition and the substrates vary for the different kinases included in the “Upstate KinaseProfiler™” panel. Kinase buffer (2.5 μL, 10x—containing MnCl2 when required), active kinase (0.001-0.01 Units; 2.5 μL), specific or Poly(Glu-4-Tyr) peptide (5-500 μM or 0.01 mg/ml) in kinase buffer and kinase buffer ([…]; 5 μL) are mixed in an eppendorf on ice. A Mg/ATP mix (10 μL; 67.5 (or 33.75) mM MgCl2, 450 (or 225) μM ATP and 1 μCi/μl [γ-^32P]-ATP (3000 Ci/mmol)) is added and the reaction is incubated at about 30° C. for about 10 minutes. The reaction mixture is spotted (20 μL) onto a 2 cm×2 cm P81 (phosphocellulose, for positively charged peptide substrates) or Whatman No, 1 (for Poly (Glu-4-Tyr) peptide substrate) paper square. The assay squares are washed 4 times, for 5 minutes each, with 0.75% phosphoric acid and washed once with acetone for 5 minutes. The assay squares are transferred to a scintillation vial, 5 ml scintillation cocktail are added and ^32P incorporation (cpm) to the peptide substrate is quantified with a Beckman scintillation counter. Percentage inhibition is calculated for each reaction.

[4] = molecular target: T4, Rsk1 (Homo sapiens, UniProt Q15418); experiment: Upstate KinaseProfiler radio-enzymatic filter binding assay, Rsk1; format: biochemical; details: at a concentration of 10 μM; read-out: percentage inhibition of Rsk1
T4 construct: purchased Upstate (KinaseProfiler panel)
Excerpt: as §1, §2

[5] = molecular target: T5, FGFR3 (Homo sapiens, UniProt P22607); experiment: Upstate KinaseProfiler radio-enzymatic filter binding assay, FGFR3; format: biochemical; details: at a concentration of 10 μM; read-out: percentage inhibition of FGFR3
T5 construct: purchased Upstate (KinaseProfiler panel)
T5 sequence (P22607 23-806): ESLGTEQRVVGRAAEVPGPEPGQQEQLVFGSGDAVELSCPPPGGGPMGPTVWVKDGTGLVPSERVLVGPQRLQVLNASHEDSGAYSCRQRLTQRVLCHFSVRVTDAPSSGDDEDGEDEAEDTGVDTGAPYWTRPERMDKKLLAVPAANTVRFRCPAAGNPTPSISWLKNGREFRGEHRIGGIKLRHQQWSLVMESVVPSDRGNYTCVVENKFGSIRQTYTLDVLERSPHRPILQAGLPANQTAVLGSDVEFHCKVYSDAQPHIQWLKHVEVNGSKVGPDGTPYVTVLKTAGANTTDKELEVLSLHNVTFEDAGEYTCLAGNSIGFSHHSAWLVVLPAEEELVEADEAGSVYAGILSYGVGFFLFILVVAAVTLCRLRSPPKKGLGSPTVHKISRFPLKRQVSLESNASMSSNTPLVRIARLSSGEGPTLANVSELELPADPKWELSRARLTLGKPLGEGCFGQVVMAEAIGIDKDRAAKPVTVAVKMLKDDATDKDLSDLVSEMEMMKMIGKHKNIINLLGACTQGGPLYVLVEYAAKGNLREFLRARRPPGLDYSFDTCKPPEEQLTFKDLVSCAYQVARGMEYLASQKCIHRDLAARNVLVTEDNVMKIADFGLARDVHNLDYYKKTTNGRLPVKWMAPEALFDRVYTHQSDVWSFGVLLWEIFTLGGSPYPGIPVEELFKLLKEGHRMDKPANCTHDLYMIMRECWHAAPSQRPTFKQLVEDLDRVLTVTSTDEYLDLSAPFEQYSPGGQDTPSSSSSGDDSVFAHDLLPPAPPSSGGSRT
Experimental: as §5

[6] = molecular target: T6, SAPK2α (Homo sapiens, UniProt Q16539); experiment: Upstate KinaseProfiler radio-enzymatic filter binding assay, SAPK2α; format: biochemical; details: at a concentration of 10 μM; read-out: percentage inhibition of SAPK2α
T6 construct: purchased Upstate (KinaseProfiler panel)
Experimental: as §5

[7] = molecular target: T7, SAPK2β (Homo sapiens, UniProt Q15759); experiment: Upstate KinaseProfiler radio-enzymatic filter binding assay, SAPK2β; format: biochemical; details: at a concentration of 10 μM; read-out: percentage inhibition of SAPK2β
T7 construct: purchased Upstate (KinaseProfiler panel)
T7 sequence (Q15759 whole entry): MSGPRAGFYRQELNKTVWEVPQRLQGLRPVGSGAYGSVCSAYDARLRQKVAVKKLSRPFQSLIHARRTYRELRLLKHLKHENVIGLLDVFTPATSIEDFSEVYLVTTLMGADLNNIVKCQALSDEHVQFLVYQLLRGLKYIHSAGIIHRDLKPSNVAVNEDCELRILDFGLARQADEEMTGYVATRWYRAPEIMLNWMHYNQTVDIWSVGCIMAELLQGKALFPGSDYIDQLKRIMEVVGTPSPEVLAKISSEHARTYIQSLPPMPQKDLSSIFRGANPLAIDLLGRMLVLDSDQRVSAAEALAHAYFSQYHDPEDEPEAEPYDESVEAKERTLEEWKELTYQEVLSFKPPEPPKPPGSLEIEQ
Experimental: as §5

[8] = molecular target: T8, CSK (Homo sapiens, UniProt P41240); experiment: Upstate KinaseProfiler radio-enzymatic filter binding assay, CSK; format: biochemical; details: at a concentration of 10 μM; read-out: percentage inhibition of CSK
T8 construct: purchased Upstate (KinaseProfiler panel)
Experimental: as §5

[9] = molecular target: T9, Bmx (Homo sapiens, UniProt P51813); experiment: Upstate KinaseProfiler radio-enzymatic filter binding assay, Bmx; format: biochemical; details: at a concentration of 10 μM; read-out: percentage inhibition of Bmx
T9 construct: purchased Upstate (KinaseProfiler panel)
T9 sequence (P51813 whole entry): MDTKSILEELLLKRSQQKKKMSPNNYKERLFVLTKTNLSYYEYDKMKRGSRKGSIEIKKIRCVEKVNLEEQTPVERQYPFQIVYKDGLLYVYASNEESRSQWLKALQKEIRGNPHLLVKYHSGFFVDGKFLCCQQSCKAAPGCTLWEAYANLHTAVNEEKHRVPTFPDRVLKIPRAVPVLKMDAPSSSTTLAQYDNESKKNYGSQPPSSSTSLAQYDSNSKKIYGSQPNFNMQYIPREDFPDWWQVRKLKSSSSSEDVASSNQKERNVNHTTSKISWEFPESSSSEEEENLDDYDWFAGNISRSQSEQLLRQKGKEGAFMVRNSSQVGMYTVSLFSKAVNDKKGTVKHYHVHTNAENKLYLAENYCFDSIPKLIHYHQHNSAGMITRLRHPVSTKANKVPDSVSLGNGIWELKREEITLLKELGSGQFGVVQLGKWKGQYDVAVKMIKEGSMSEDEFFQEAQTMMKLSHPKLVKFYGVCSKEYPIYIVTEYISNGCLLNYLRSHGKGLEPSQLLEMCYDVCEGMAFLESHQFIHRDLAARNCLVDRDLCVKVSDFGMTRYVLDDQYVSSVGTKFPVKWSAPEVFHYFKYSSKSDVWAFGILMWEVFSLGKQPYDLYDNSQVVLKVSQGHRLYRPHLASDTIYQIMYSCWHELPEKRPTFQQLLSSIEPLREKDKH
Experimental: as §5

[10] = molecular target: T10, GSK3β (Homo sapiens, UniProt P49841); experiment: Upstate KinaseProfiler radio-enzymatic filter binding assay, GSK3β; format: biochemical; details: at a concentration of 10 μM; read-out: percentage inhibition of GSK3β
T10 construct: purchased Upstate (KinaseProfiler panel)
Experimental: as §5

[11] = molecular target: T11, Flt3 (Homo sapiens, UniProt P36888); experiment: Upstate KinaseProfiler radio-enzymatic filter binding assay, Flt3; format: biochemical; details: at a concentration of 10 μM; read-out: percentage inhibition of Flt3
T11 construct: purchased Upstate (KinaseProfiler panel)
Experimental: as §5

[12] = molecular target: T12, Fes (Homo sapiens, UniProt P07332); experiment: Upstate KinaseProfiler radio-enzymatic filter binding assay, Fes; format: biochemical; details: at a concentration of 10 μM; read-out: percentage inhibition of Fes
T12 construct: purchased Upstate (KinaseProfiler panel)
Experimental: as §5

[13] = molecular target: T13, Syk (Homo sapiens, UniProt P43405); experiment: Upstate KinaseProfiler radio-enzymatic filter binding assay, Syk; format: biochemical; details: at a concentration of 10 μM; read-out: percentage inhibition of Syk
T13 construct: purchased Upstate (KinaseProfiler panel)
Experimental: as §5

[14] = molecular target: T14, JNK2α2 (Homo sapiens, UniProt P45984); experiment: Upstate KinaseProfiler radio-enzymatic filter binding assay, JNK2α2; format: biochemical; details: at a concentration of 10 μM; read-out: percentage inhibition of JNK2α2
T14 construct: purchased Upstate (KinaseProfiler panel)
Experimental: as §5

[15] = molecular target: T15, TrkB (Homo sapiens, UniProt Q16620); experiment: Upstate KinaseProfiler radio-enzymatic filter binding assay, TrkB; format: biochemical; details: at a concentration of 10 μM; read-out: percentage inhibition of TrkB
T15 construct: purchased Upstate (KinaseProfiler panel)
T15 sequence (Q16620 32-822): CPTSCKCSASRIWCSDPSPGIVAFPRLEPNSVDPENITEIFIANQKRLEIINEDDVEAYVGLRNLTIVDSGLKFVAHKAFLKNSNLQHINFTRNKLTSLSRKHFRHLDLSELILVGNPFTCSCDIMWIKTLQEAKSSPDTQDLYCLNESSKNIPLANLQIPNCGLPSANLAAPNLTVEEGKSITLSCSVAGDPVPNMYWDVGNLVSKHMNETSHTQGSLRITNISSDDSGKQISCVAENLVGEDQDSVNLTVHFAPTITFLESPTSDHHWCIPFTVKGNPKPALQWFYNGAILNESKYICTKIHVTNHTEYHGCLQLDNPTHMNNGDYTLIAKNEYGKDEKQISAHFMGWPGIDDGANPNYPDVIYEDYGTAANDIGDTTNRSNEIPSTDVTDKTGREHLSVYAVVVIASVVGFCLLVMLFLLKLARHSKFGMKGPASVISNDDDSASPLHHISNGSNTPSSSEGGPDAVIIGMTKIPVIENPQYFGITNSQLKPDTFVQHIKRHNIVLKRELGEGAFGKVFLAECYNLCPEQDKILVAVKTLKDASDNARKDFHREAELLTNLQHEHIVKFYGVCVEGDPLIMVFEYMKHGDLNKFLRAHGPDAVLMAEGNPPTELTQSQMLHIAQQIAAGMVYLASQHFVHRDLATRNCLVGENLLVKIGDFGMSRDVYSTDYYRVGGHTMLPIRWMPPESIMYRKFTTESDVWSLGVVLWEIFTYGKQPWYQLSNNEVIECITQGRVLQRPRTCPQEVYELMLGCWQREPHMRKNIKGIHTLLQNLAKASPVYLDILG
Experimental: as §5

[16] = molecular target: T16, IR (Homo sapiens, UniProt P06213); experiment: Upstate KinaseProfiler radio-enzymatic filter binding assay, IR; format: biochemical; details: at a concentration of 10 μM; read-out: percentage inhibition of IR
T16 construct: purchased Upstate (KinaseProfiler panel)
T16 sequence (P06213 28-1382): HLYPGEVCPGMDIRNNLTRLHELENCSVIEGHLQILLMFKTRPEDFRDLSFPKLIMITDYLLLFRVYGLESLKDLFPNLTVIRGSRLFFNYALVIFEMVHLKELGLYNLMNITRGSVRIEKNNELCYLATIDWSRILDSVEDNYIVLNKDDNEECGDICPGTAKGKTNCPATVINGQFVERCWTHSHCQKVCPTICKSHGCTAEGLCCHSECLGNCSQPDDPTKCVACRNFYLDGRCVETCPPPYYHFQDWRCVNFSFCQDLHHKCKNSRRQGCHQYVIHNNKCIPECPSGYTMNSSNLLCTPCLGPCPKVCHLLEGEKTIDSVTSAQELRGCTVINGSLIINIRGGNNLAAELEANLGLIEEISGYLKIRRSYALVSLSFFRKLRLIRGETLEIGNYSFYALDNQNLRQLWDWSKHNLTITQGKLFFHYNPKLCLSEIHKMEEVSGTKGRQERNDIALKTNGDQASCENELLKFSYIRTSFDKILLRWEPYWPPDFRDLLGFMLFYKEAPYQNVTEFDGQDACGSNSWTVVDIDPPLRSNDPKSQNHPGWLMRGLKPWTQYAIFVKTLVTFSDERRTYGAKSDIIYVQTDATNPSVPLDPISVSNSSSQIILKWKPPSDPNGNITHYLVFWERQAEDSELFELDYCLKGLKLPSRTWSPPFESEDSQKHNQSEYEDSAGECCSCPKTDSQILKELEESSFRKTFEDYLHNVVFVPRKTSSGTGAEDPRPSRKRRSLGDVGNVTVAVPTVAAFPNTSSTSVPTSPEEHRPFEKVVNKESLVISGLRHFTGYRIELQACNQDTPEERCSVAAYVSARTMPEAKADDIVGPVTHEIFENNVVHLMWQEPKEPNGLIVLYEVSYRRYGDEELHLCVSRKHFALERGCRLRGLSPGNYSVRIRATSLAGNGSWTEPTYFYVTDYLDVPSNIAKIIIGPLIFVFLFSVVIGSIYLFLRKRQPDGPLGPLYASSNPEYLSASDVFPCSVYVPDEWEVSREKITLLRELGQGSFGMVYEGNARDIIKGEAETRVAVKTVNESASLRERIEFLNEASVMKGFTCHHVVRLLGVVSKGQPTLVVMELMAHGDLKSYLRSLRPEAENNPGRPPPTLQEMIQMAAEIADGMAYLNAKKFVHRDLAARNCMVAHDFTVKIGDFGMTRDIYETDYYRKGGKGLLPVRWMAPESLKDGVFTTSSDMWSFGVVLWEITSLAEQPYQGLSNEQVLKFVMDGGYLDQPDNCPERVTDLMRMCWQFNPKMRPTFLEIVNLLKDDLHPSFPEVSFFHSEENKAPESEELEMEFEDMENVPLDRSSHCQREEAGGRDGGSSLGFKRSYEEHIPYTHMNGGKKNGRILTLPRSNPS
Experimental: as §5

[17] = molecular target: T17, M351T Bcr-abl (Homo sapiens, UniProt P00519, M351T); experiment: Antiproliferative effect on Ba/F3 cells expressing M351T Bcr-abl; format: cell-based; details: M351T mutant
T17 construct: BCR (fusion partner); expressed in transfected cells; host or cells: Ba/F3 (murine pro-B cells); the other entry of the earlier key: BCR (P11274, Breakpoint cluster region protein)
Experimental: as §3, §4

[18] = molecular target: T18, p70S6K (Homo sapiens, UniProt P23443); experiment: Upstate KinaseProfiler radio-enzymatic filter binding assay, p70S6K; format: biochemical; details: at a concentration of 10 μM; read-out: percentage inhibition of p70S6K
T18 construct: purchased Upstate (KinaseProfiler panel)
Experimental: as §5

[19] = molecular target: T19, Lck (Homo sapiens, UniProt P06239); experiment: Upstate KinaseProfiler radio-enzymatic filter binding assay, Lck; format: biochemical; details: at a concentration of 10 μM; read-out: percentage inhibition of Lck
T19 construct: purchased Upstate (KinaseProfiler panel)
Experimental: as §5

[20] = molecular target: T20, MKK4 (Mus musculus, UniProt P47809); experiment: Upstate KinaseProfiler radio-enzymatic filter binding assay, MKK4; format: biochemical; details: at a concentration of 10 μM; read-out: percentage inhibition of MKK4
T20 construct: purchased Upstate (KinaseProfiler panel)
Excerpt: as §1, §2

[21] = molecular target: T21, G250E Bcr-abl (Homo sapiens, UniProt P00519, G250E); experiment: Antiproliferative effect on Ba/F3 cells expressing G250E Bcr-abl; format: cell-based; details: G250E mutant
T21 construct: BCR (fusion partner); expressed in transfected cells; host or cells: Ba/F3 (murine pro-B cells); the other entry of the earlier key: BCR (P11274, Breakpoint cluster region protein)
Experimental: as §3, §4

[22] = molecular target: T22, wild type Bcr-abl (Homo sapiens, UniProt P00519); experiment: Antiproliferative effect on Ba/F3 cells expressing wild type Bcr-abl; format: cell-based
T22 construct: BCR (fusion partner); expressed in transfected cells; host or cells: Ba/F3 (murine pro-B cells); the other entry of the earlier key: BCR (P11274, Breakpoint cluster region protein)
Experimental: as §3, §4

[23] = molecular target: T23, T315I Bcr-abl (Homo sapiens, UniProt P00519, T315I); experiment: Antiproliferative effect on Ba/F3 cells expressing T315I Bcr-abl; format: cell-based; details: T315I mutant
T23 construct: BCR (fusion partner); expressed in transfected cells; host or cells: Ba/F3 (murine pro-B cells); the other entry of the earlier key: BCR (P11274, Breakpoint cluster region protein)
Experimental: as §3, §4

[24] = molecular target: T24, E255V Bcr-abl (Homo sapiens, UniProt P00519, E255V); experiment: Antiproliferative effect on Ba/F3 cells expressing E255V Bcr-abl; format: cell-based; details: E255V mutant
T24 construct: BCR (fusion partner); expressed in transfected cells; host or cells: Ba/F3 (murine pro-B cells); the other entry of the earlier key: BCR (P11274, Breakpoint cluster region protein)
Experimental: as §3, §4

[25] = molecular target: T25, JNK1α1 (Homo sapiens, UniProt P45983); experiment: Upstate KinaseProfiler radio-enzymatic filter binding assay, JNK1α1; format: biochemical; details: at a concentration of 10 μM; read-out: percentage inhibition of JNK1α1
T25 construct: purchased Upstate (KinaseProfiler panel)
Experimental: as §5

[26] = molecular target: T26, c-RAF (Homo sapiens, UniProt P04049); experiment: Upstate KinaseProfiler radio-enzymatic filter binding assay, c-RAF; format: biochemical; details: at a concentration of 10 μM; read-out: percentage inhibition of c-RAF
T26 construct: purchased Upstate (KinaseProfiler panel)
Experimental: as §5

With `Cc1ccc(Nc2ncc3nc(-c4cc(NC(=O)c5cccc(C(F)(F)F)c5)ccc4C)c(=O)n(C)c3n2)cn1` [Example 2, N-[4-methyl-3-(8-methyl-2-(6-methyl-pyridin-3-ylamino)7-oxo-7,8-dihydropteridin-6-yl)-phenyl]-3-trifluoromethyl-benzamide] the inhibition at 10 µM [1] was 97%, the IC50 [2] was < 0.5 nM and the inhibition at 10 µM [3] was 76%. It also gave an inhibition at 10 µM [4] of 90%, an inhibition at 10 µM [5] of 98% and an inhibition at 10 µM [6] of 95%. It also gave an inhibition at 10 µM [7] of 99%, an inhibition at 10 µM [8] of 98% and an inhibition at 10 µM [9] of 100%. For the same compound, the inhibition at 10 µM [10] was 53%, the inhibition at 10 µM [11] was 64% and the inhibition at 10 µM [12] was 100%. The inhibition at 10 µM [13] was 76%, the inhibition at 10 µM [14] was 99% and the inhibition at 10 µM [15] was 96%. The inhibition at 10 µM [16] was 60%, the IC50 [17] was < 0.5 nM and the inhibition at 10 µM [18] was 98%. It also gave an inhibition at 10 µM [19] of 98%, an inhibition at 10 µM [20] of 92% and an IC50 [21] of 23 nM. The IC50 [22] was < 0.5 nM, the IC50 [23] was 55 nM and the IC50 [24] was 13 nM. For the same compound, the inhibition at 10 µM [25] was 98% and the inhibition at 10 µM [26] was 100%.
